Holding throughout (assay type): biochemical
One test deals with T1, PRMT3 (211-531) (Homo sapiens, UniProt O60678).
T1 construct: PRMT3 (211-531)
The test is described as follows: Filter-paper methyltransferase assay, PRMT3. Conditions: substrate RGG, 100 nM enzyme, 3 h; read-out: IC50 PRMT3.

Another test addresses T2, G9a (913-1913) (Homo sapiens, UniProt Q96KQ7).
T2 construct: G9a (913-1913)
T2 sequence (Q96KQ7 913-1193 limits assumed): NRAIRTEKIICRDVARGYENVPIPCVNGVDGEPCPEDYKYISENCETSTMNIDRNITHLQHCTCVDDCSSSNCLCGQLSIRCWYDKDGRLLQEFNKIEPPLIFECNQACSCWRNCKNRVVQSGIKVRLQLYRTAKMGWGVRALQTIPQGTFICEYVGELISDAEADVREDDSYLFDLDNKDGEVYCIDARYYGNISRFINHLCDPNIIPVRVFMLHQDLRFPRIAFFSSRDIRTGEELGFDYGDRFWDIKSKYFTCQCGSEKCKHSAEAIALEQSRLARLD
The test is described as follows: Filter-paper methyltransferase assay, G9a. As to conditions: substrate H3 (1-21 aa), 20 nM enzyme, 1 h.

A further test has as its target T3, GLP1 (951-1235) (Homo sapiens, UniProt Q9H9B1).
T3 construct: GLP1 (951-1235)
T3 sequence (Q9H9B1 982-1266): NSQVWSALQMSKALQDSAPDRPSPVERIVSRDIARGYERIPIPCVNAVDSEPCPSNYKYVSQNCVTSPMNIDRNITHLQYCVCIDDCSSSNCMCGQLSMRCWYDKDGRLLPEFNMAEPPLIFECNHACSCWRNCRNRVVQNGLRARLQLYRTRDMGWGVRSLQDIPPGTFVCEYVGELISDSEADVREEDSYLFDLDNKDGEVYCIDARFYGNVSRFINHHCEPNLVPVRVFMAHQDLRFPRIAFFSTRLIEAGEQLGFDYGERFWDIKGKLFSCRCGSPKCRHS
The test is described as follows: Filter-paper methyltransferase assay, GLP1. As to conditions: substrate H3 (1-21 aa), 10 nM enzyme, 1 h. How it is done:
Methylation Reaction. The 20 μL methylation reaction was carried out at ambient temperature using two mixtures: A. 10 μl of enzyme mixture in the assay buffer containing 50 mM Hepes (pH=8.0), 0.005% Tween-20, 5 μg/ml BSA and 1 mM TCEP; B. 10 μl of a mixture of […], 0.15 μCi [^3H-Me]-SAM cofactor and 3 μM of the corresponding peptide substrate in the same assay buffer. After A and B were mixed for a designated time period, the reaction mixture was examined with our filter-paper assay.
Filter-paper Assay. This assay relies on Whatman P-81 filter paper, which binds peptides but not SAM. Protein Methyl Transferases (PMTs) transfer ^3H-Me of [^3H-Me]-SAM to peptide substrates and the resultant ^3H-methylated, filter-paper-bound peptide is quantified with a scintillation counter. Briefly, 6 μl of the methylation reaction was spotted onto Whatman P-81 phosphocellulose filter paper (1.2×1.2 cm^2) to immobilize the ^3H-labeled peptide. After drying in air for 20 min, the filter paper was immersed into 20 mL of 50 mM Na2CO3/NaHCO3 buffer (pH=9.2), and washed 5 times for 10 min each time. The washed filter paper was then transferred to a 20 ml scintillation vial containing 1 mL of distilled water and 10 mL of Ultima Gold scintillation cocktail or 7 mL scintillation vial containing 0.5 mL od distilled water and 5 mL of scintillation cocktail (PerkinElmer). The radioactivity was quantified by a Beckman LS6000IC liquid scintillation counter.
Dose-response Curves and IC50. Twice the PMT concentration was incubated for 10 min with varied concentration of inhibitors (0.1-400 μM stocks), into which 10 μl of the PMT peptide substrate and radioactive cofactor (3 μM of the corresponding peptide and 1.5 μM, 0.15 μCi [^3H-Me]-SAM) were added. After incubating the reaction mixture for the respective reaction time, the conversion was quantified with the filter paper assay as described above. The inhibition was expressed as the percentage between the high control (no inhibition) and the low control (no enzyme) as follows: Percentage Inhibition=[(high control−reading)/(high control−low control)]×100%. Each experiment was performed in triplicate. The IC50 values were obtained by fitting inhibition percentage versus inhibitor concentration using GraphPad Prism5 software.

For a further test, the target named is T4, PRMT1 (10-352) (Homo sapiens, UniProt Q99873).
T4 construct: PRMT1 (10-352)
T4 sequence (Q99873 10-352 isoform Q99873-3): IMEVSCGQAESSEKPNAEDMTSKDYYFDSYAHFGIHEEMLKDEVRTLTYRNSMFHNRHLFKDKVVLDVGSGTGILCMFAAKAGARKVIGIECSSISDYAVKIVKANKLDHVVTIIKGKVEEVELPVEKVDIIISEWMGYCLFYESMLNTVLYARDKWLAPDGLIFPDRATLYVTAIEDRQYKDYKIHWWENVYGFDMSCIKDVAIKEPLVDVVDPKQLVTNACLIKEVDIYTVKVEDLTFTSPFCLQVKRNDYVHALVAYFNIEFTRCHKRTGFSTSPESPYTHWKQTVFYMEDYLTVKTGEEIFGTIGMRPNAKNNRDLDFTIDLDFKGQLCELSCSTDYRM
The test is described as follows: Filter-paper methyltransferase assay, PRMT1. Conditions: 100 nm enzyme, substrate RGG, 1.5 h.

The target of the next test is T5, SET7/9 Full-length (Homo sapiens, UniProt Q8WTS6).
T5 construct: SET7/9 Full-length
T5 sequence (Q8WTS6 1-366): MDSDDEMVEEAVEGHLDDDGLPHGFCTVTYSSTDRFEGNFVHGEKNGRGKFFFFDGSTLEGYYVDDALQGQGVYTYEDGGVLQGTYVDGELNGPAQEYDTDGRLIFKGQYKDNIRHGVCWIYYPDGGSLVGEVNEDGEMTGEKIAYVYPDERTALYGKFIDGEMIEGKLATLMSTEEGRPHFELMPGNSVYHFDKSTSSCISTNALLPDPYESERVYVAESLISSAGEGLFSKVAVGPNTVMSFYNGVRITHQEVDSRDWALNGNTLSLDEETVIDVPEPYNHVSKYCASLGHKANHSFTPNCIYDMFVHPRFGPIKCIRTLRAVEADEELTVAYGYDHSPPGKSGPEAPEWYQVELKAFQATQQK
Put plainly: Filter-paper methyltransferase assay, SET7/9. Conditions: substrate H3 (1-21 aa), 150 nM enzyme, 3 h.

The target of a further test is T6, SUV39H2 (112-410) (Homo sapiens, UniProt Q9H5I1).
T6 construct: SUV39H2 (112-410)
T6 sequence (Q9H5I1 112-410): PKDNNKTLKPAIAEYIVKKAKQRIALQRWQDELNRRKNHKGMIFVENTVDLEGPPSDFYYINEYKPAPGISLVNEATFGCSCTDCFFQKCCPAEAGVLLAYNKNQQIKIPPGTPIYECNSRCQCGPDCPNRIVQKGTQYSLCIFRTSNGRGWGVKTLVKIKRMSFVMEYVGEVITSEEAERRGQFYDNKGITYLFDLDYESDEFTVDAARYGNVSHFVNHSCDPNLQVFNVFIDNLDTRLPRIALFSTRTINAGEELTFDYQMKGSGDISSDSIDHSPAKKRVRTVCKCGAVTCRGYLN
Put plainly: Filter-paper methyltransferase assay, SUV39H2. As to conditions: substrate H3 (1-21 aa), 5 nM enzyme, 4 h; read-out: IC50 SUV39H2.

T1 sequence (O60678 211-531): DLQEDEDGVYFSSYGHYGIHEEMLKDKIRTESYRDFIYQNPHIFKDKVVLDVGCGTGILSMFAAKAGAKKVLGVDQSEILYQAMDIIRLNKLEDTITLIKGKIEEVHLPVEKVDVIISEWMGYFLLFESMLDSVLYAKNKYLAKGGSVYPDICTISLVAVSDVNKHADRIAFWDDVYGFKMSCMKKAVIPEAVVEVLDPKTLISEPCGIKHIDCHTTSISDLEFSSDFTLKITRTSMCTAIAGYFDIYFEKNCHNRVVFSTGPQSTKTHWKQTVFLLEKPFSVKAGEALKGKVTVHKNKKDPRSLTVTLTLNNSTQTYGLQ

By IC50 is commonly meant the concentration that inhibits the measured activity by half. Consider `CC(C)(C)c1ccc(NC(=O)NCCC[C@H](CNCc2ccccc2)C[C@H]2O[C@@H](n3cnc4c(N)ncnc43)[C@@H](O)C2O)cc1` (stereo partly drawn) [Example 29], for which the IC50 is greater than 50 µM on PRMT3 (211-531); greater than 100 µM against G9a (913-1913); greater than 100 µM at GLP1 (951-1235); greater than 100 µM against PRMT1 (10-352); greater than 100 µM against SET7/9 Full-length; roughly 10 µM on SUV39H2 (112-410).

The values above are taken from patent US20160052955A1, “[…] INHIBITORS FOR TREATING CANCERS” (SLOAN-KETTERING INSTITUTE FOR CANCER RESEARCH, priority 2013, published 2016).
